Tests used:
AKT1 = target: T1, AKT1 (Homo sapiens, UniProt P31749); experiment: Z'-LYTE assay (AKT binding assay), AKT1; conditions: 10-point dose response, Km ATP, read-out: Biochemical Binding AKT1
T1 construct: purchased Life Technologies (Invitrogen)
Method: Z′-LYTE assays (catalog number PV3193, Invitrogen™) were conducted for AKT1, AKT2, AKT3, PKG1, S6K1, PKN1, βMSK2, and Haspin at Life Technologies™ in a 10-point dose response using Km ATP concentrations. LanthaScreen™ assays were conducted for RET (V804M) in a 10-point dose response at Life Technologies™.

ZR-75-1 cells = experiment: Growth inhibition rate (GR) assay in ZR-75-1 cells; assay type: cell-based; conditions: 72-hour treatment (FIG. 6A)
Source text: FIG. 6A-FIG. 6F are a set of graphs that show growth inhibition rate (GR) values across concentrations in ZR-75-1 (FIG. 6A), T47D (FIG. 6B), LNCaP (FIG. 6C), MCF-7 (FIG. 6D), MDA-MB-468 (FIG. 6E), and HCC1937 (FIG. 6F) cells after 72-hour treatment with GDC-0068 (blue), inventive bifunctional compound 10 (red), bifunctional compound 10-Me (negative control) (green), and lenalidomide (orange). Error bars represent the standard deviation of three technical replicates.

T1 sequence (P31749 whole entry): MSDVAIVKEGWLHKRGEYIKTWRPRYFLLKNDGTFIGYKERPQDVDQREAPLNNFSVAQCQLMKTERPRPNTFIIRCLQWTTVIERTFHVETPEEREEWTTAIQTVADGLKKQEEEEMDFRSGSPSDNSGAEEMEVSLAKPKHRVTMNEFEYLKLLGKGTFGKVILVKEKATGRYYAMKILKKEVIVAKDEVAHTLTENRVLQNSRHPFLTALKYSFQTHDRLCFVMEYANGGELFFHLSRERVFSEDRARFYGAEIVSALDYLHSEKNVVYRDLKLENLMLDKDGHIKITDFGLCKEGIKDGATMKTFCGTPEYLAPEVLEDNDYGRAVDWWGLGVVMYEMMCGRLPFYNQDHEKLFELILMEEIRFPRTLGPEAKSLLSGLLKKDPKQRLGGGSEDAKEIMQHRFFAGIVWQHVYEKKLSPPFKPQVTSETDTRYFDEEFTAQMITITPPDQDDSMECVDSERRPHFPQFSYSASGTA

## C[C@@H]1C[C@@H](O)c2ncnc(N3CCN(C(=O)[C@H](CNCCOCCOCCNC(=O)COc4cccc5c4C(=O)N(C4CCC(=O)NC4=O)C5=O)c4ccc(Cl)cc4)CC3)c21 (stereo partly drawn) [Compound 4, N-(2-(2-(2-(((S)-2-(4-chlorophenyl)-3-(4-((5R,7R)-7-hydroxy-5-methyl-6,7-dihydro-5H-cyclopenta[d]pyrimidin-4-yl)piperazin-1-yl)-3-oxopropyl)amino)ethoxy)ethoxy)ethyl)-2-((2-(2,6-dioxopiperidin-3-yl)-1,3-dioxoisoindolin-4-yl)oxy)acetamide]
AKT1
  IC50: 6.97 nM

## C[C@@H]1C[C@@H](O)c2ncnc(N3CCN(C(=O)[C@H](CNCCOCCNC(=O)COc4cccc5c4C(=O)N(C4CCC(=O)NC4=O)C5=O)c4ccc(Cl)cc4)CC3)c21 (stereo partly drawn) [Compound 5, N-(2-(2-(((S)-2-(4-chlorophenyl)-3-(4-((5R,7R)-7-hydroxy-5-methyl-6,7-dihydro-5H-cyclopenta[d]pyrimidin-4-yl)piperazin-1-yl)-3-oxopropyl)amino)ethoxy)ethyl)-2-((2-(2,6-dioxopiperidin-3-yl)-1,3-dioxoisoindolin-4-yl)oxy)acetamide]
AKT1
  IC50: 3.4 nM

## Cc1ncsc1-c1ccc([C@H](C)NC(=O)[C@@H]2C[C@@H](O)CN2C(=O)[C@@H](NC(=O)CCOCCOCCNC[C@@H](C(=O)N2CCN(c3ncnc4c3[C@H](C)C[C@H]4O)CC2)c2ccc(Cl)cc2)C(C)(C)C)cc1 [Compound 6, (2S,4R)-1-((2S,15S)-2-(tert-butyl)-15-(4-chlorophenyl)-16-(4-((5R,7R)-7-hydroxy-5-methyl-6,7-dihydro-5H-cyclopenta[d]pyrimidin-4-yl)piperazin-1-yl)-4,16-dioxo-7,10-dioxa-3,13-diazahexadecanoyl)-4-hydroxy-N—((S)-1-(4-(4-methylthiazol-5-yl)phenyl)ethyl)pyrrolidine-2-carboxamide]
AKT1
  IC50: 3.8 nM

## C[C@@H]1C[C@@H](O)c2ncnc(N3CCN(C(=O)[C@H](CNCCCCCCCCC#Cc4cccc5c4CN(C4CCC(=O)NC4=O)C5=O)c4ccc(Cl)cc4)CC3)c21 (stereo partly drawn) [Compound 7, 3-(4-(10-(((S)-2-(4-chlorophenyl)-3-(4-((5R,7R)-7-hydroxy-5-methyl-6,7-dihydro-5H-cyclopenta[d]pyrimidin-4-yl)piperazin-1-yl)-3-oxopropyl)amino)dec-1-yn-1-yl)-1-oxoisoindolin-2-yl)piperidine-2,6-dione]
AKT1
  IC50: 2.46 nM

## C[C@@H]1C[C@@H](O)c2ncnc(N3CCN(C(=O)[C@H](CNCCCCc4cccc5c4C(=O)N(C4CCC(=O)NC4=O)C5=O)c4ccc(Cl)cc4)CC3)c21 (stereo partly drawn) [Compound 9, 4-(4-(((S)-2-(4-chlorophenyl)-3-(4-((5R,7R)-7-hydroxy-5-methyl-6,7-dihydro-5H-cyclopenta[d]pyrimidin-4-yl)piperazin-1-yl)-3-oxopropyl)amino)butyl)-2-(2,6-dioxopiperidin-3-yl)isoindoline-1,3-dione]
AKT1
  IC50: 1.8 nM

## C[C@@H]1C[C@@H](O)c2ncnc(N3CCN(C(=O)[C@H](CNCCCCCCCCCCc4cccc5c4CN(C4CCC(=O)N(C)C4=O)C5=O)c4ccc(Cl)cc4)CC3)c21 (stereo partly drawn) [Compound 10-Me, 3-(4-(10-(((S)-2-(4-chlorophenyl)-3-(4-((5R,7R)-7-hydroxy-5-methyl-6,7-dihydro-5H-cyclopenta[d]pyrimidin-4-yl)piperazin-1-yl)-3-oxopropyl)amino)decyl)-1-oxoisoindolin-2-yl)-1-methylpiperidine-2,6-dione]
ZR-75-1 cells
  Anti-proliferative potency relative to compound 10: significantly less potent
ZR-75-1 cells; Homo sapiens, read-out: GR50
  GR50: 413 nM

— patent publication US12642857B2, “Degradation of AKT by conjugation of ATP-competitive AKT inhibitor GDC-0068 with E3 ligase ligands and methods of use” (DANA-FARBER CANCER INSTITUTE, INC., priority 2019, dated 2026)
